Paper PMC8041433 (Environmental Health Perspectives, 2021)
Several values for one entry are separate records, joined by “and”; a condition that tells them apart may be missing. Equal values may be shown once. Where a name gives a salt, the structure may show the parent alone. Read-outs that look alike come from different tables or passages of the source.

What was measured:
recombinant human AChE [1] = molecular target: T1, recombinant human AChE (Homo sapiens, UniProt P22303); test: biochemical; type: biochemical; settings: for AC50: AC50 (uM)
T1 sequence (P22303 32-614): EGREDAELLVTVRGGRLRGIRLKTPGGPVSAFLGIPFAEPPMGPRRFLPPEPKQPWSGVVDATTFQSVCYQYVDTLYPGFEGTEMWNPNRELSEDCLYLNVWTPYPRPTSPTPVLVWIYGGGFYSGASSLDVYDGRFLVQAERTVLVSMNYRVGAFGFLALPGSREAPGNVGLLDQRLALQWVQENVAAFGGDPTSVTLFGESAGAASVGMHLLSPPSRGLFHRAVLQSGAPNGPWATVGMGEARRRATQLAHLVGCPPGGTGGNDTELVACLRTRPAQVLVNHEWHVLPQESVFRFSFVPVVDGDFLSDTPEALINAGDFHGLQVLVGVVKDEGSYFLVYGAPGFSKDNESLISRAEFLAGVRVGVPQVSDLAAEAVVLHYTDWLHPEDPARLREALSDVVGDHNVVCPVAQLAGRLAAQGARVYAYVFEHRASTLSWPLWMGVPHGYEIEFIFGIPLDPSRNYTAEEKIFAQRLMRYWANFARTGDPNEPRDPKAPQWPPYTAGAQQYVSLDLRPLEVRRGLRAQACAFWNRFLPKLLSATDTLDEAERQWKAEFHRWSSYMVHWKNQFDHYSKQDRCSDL

recombinant human AChE [2] = molecular target: T1, recombinant human AChE; test: biochemical
recombinant human AChE [3] = molecular target: T1, recombinant human AChE
AChE in SH-SY5Y cells = AChE in SH-SY5Y cells (Homo sapiens, UniProt P22303); test: cell-based
AChE in SH-SY5Y cells, sequence (P22303 32-614): as above

[4] = molecular target: AChE in neural stem cells (Homo sapiens, UniProt P22303); test: cell-based
AChE in neural stem cells, sequence (P22303 32-614): as above

recombinant human AChE [5] = molecular target: T1, recombinant human AChE; test: biochemical; remark: listed apart in the source
recombinant human AChE [6] = molecular target: T1, recombinant human AChE; test: biochemical; remark: listed apart in the source
[7] = molecular target: AChE in neural stem cell spheroids (Homo sapiens, UniProt P22303); test: cell-based; settings: for IC50: potency (IC50)
AChE in neural stem cell spheroids, sequence (P22303 32-614): as above

[8] = molecular target: AChE in SH-SY5Y spheroids (Homo sapiens, UniProt P22303); test: cell-based; settings: potency (IC50)
AChE in SH-SY5Y spheroids, sequence (P22303 32-614): as above

[9] = potency (IC50), SH-SY5Y cells monolayer
[10] = potency (IC50), Enzyme with microsomes
[11] = Neural stem cell spheroid (48 h)
[12] = Neural stem cell spheroid (24 h)
Wherever IR or R is given: key: Reversible (R); Irreversible (IR); ND, not detected in enzyme-based AChE inhibition assay from current study.

Row | Compound | IR or R (recombinant human AChE [1]) | AC50 (recombinant human AChE [1]) | CC-v2 (curve classes) (recombinant human AChE [2]) | Efficacy (recombinant human AChE [2]) | IC50 (recombinant human AChE [2]; potency (IC50), Enzyme) | CC-v2 (curve classes) (recombinant human AChE [3]) | Efficacy (recombinant human AChE [3]) | CC-v2 (curve classes) (AChE in SH-SY5Y cells) | IC50 (AChE in SH-SY5Y cells; IC50 (uM)) | IC50 (AChE in SH-SY5Y cells; [9]) | IC50 [4] | IC50 (recombinant human AChE [5]) | IC50 (recombinant human AChE [6]; [10]) | IC50 [7, 11] | IC50 ([8]; SH-SY5Y spheroids (24 h)) | IC50 ([8]; SH-SY5Y spheroids (48 h)) | IC50 [7, 12] | AC50 (recombinant human AChE [1]; activity_5) | AC50 (recombinant human AChE [1]; activity_10) | AC50 (recombinant human AChE [1]; activity_60) | further results
1 | CNC(=O)Oc1ccccc1C(C)C [Isoprocarb] | R | 9.93 µM and 14 µM and 17.7 µM and 22.2 µM and 12.5 µM and 4.98 µM and 3.95 µM and 5.59 µM | -1.1 | -91.575 | 6.55 ± 0.83 µM | -2.1 | -88.562 | -1.1 | 3.56 µM and 4.48 µM | 8.21 ± 0.55 µM | 21 ± 9.16 µM | 9.21 ± 0.62 µM | 8.53 ± 0.55 µM | 39.6 µM | 5.45 ± 4.07 µM | 12.5 µM | – | – | – | – | potency (IC50), Neural stem cell spheroid (24 h) [7]: Inactive
2 | CCOP(=S)(OCC)Oc1cc(-c2ccccc2)on1 [Isoxathion] | – | 55.9 µM (2×) and 49.8 µM (3×) and 44.4 µM (2×) | -3 | -107.392 | 44.4 µM | -1.1 | -99.076 | -2.1 | 63.3 µM and 79.6 µM | 17 µM | 6.1 µM | 85.3 ± 5.56 µM | 2.11 µM | 1.68 µM | 27 µM | 17.7 µM | 0.73 µM | – | – | – | –
3 | COc1ccc(C(=O)NCc2ccc(OCCN(C)C)cc2)cc1OC.Cl [Itopride hydrochloride, reference compound] | R | 15.3 µM (3×) and 21.7 µM and 17.2 µM and 19.3 µM | -2.2 | -69.798 | 12.7 ± 0.85 µM | 4 | 0 | -1.1 and -2.1 | 6.92 µM and 4.9 µM and 5.5 µM | 7.68 µM | 11.2 ± 3.11 µM | 22.6 ± 1.53 µM | 19.4 ± 2.22 µM | 14.2 µM | 4.44 ± 3.53 µM | 11.2 ± 3.12 µM | 23.5 ± 3.23 µM | – | – | – | IC50 (recombinant human AChE [2]; IC50 (uM)): 27.5 µM
4 | COP(=S)(Oc1cc(Cl)c(Br)cc1Cl)c1ccccc1 (stereo not shown) [Leptophos] | – | 31.4 µM and 62.7 µM (3×) and 39.5 µM and 35.2 µM and 55.9 µM | -3 | -64.129 | 46.4 µM | -1.1 | -83.877 | -2.1 | 63.3 µM and 71 µM and 79.6 µM | 28 µM | 58.1 µM | 48 ± 3.13 µM | 2.31 µM | 69 µM | 54.6 µM | 44.6 µM | 36.5 µM | – | – | – | –
5 | CCOC(=O)CC(SP(=O)(OC)OC)C(=O)OCC (stereo not shown) [Malaoxon] | – | 22.2 µM (2×) and 9.93 µM and 7.89 µM and 25 µM and 8.85 µM (2×) and 5.59 µM and 11.1 µM | -1.1 | – | 1.46 µM | -2.1 | – | -1.1 | 3.56 µM and 3.02 µM and 3.17 µM and 2.83 µM | 3.05 ± 0.52 µM | 5.86 ± 1.05 µM | 4.62 ± 0.31 µM | 4.43 µM | 9.46 µM | 4.09 ± 3.42 µM | 3.95 µM | 5.05 ± 3.3 µM | – | – | – | –
6 | Cc1ccc2c(n1)Oc1ccc(C(C)C(=O)OCC(=O)N(C)C)cc1C2 (stereo not shown) [Mepranoprofen arbamel, reference compound] | – | 12.2 µM and 13.7 µM and 19.3 µM (3×) and 7.69 µM and 17.2 µM and 9.68 µM | -2.2 and -1.1 | – | 15.4 ± 1.77 µM | 4 | 0 | -2.1 and -1.1 | 15.5 µM and 12.3 µM and 27.5 µM | 19.3 µM | 12.7 ± 0.85 µM | 24.3 µM | 37.3 ± 5.13 µM | 11.3 µM | 7.46 ± 3.5 µM | 18 ± 2.29 µM | 12.5 ± 3.49 µM | – | – | – | IC50 (recombinant human AChE [2]; IC50 (uM)): 24.5 µM and 15.5 µM
7 | CNC(=O)ON=C(C)SC [Methomyl] | R | – | -1.1 | -92.651 | 1.83 ± 0.12 µM | -1.1 | -96.277 | -1.1 | 1.59 µM and 2 µM | 4.11 ± 0.27 µM | 7.99 ± 1.49 µM | 3.83 ± 0.53 µM | 3.18 ± 0.66 µM | 9.75 µM | 6.41 ± 8.14 µM | 3.81 ± 0.25 µM | 6.27 ± 2.23 µM | – | – | – | –
8 | CC(=O)Oc1cc(C(C)C)c(OCCN(C)C)cc1C [Moxisylyte hydrochloride, reference compound] | R | – | -2.2 | -54.154 | 21.9 µM | -2.4 | -32.666 | -2.1 and -1.1 | 13.8 µM | 20.1 µM | 19.3 µM | 20.1 ± 1.36 µM | 19.3 µM | 24.3 µM | 14.3 µM | 20.9 µM | – | 19.3 µM and 17.2 µM and 21.7 µM | 19.3 µM and 24.3 µM and 21.7 µM | 17.2 µM and 24.3 µM and 21.7 µM | potency (IC50), Neural stem cell spheroid (24 h) [7]: Inactive
9 | CNC(=C[N+](=O)[O-])NCCSCc1csc(CN(C)C)n1 [Nizatidine, reference compound] | R | – | -2.1 | – | 10.5 ± 0.68 µM | 4 | – | -1.1 and -2.1 | 14.2 µM and 12.6 µM and 12.3 µM and 13.8 µM and 11.2 µM | 7.68 µM | 18.6 ± 1.21 µM | 15.6 ± 3.57 µM | 20.1 ± 1.36 µM | – | 7.05 ± 1.96 µM | 12.2 ± 1.41 µM | – | 24.3 µM and 27.3 µM and 6.85 µM | 21.7 µM and 27.3 µM and 30.6 µM | 27.3 µM and 19.3 µM and 24.3 µM | IC50 (recombinant human AChE [2]; IC50 (uM)): 35.6 µM and 27.5 µM; potency (IC50), Neural stem cell spheroid (24 h) [7]: Inactive
10 | CNC(=O)O/N=C(\SC)C(=O)N(C)C [Oxamyl] | – | – | -1.1 | – | 1.74 ± 0.48 µM | -1.1 | – | -1.1 | 1.55 µM and 1.42 µM and 1.23 µM | 2.5 ± 0.28 µM | 3.39 ± 0.22 µM | 2.81 ± 0.32 µM | 2.16 ± 0.36 µM | 1.85 µM | 2.28 ± 0.63 µM | 3.05 ± 0.52 µM | 0.96 ± 0.38 µM | 3.95 µM and 4.44 µM and 3.52 µM | 2.8 µM and 3.52 µM and 2.5 µM | 0.703 µM and 1.57 µM and 1.25 µM | –
11 | CCOP(=S)(OCC)Oc1ccc([N+](=O)[O-])cc1 [Parathion] | – | – | – | – | 22.8 µM | -1.1 | – | -2.1 | 13.8 µM and 64.1 µM and 71.9 µM | 11.3 µM | 6.88 µM | 18 ± 2.29 µM | 1.27 µM | 9.13 µM | 18.1 µM | 10.6 µM | 3.9 µM | 24.3 µM and 30.6 µM | 27.3 µM and 24.3 µM | 21.7 µM and 19.3 µM | –
12 | Cl.Clc1cc(Cl)c2c(c1)N=C1CCCCCN1C2 [PharmaGSID_47259] | R | – | -1.1 | -94.138 | 0.54 ± 0.06 µM | -1.1 | -90.391 | -1.1 | 0.776 µM and 0.692 µM | 0.87 ± 0.18 µM | 10.7 ± 2.66 µM | 1.54 ± 0.18 µM | 1.79 ± 0.22 µM | 22 µM | 2.24 ± 2.76 µM | 0.85 ± 0.21 µM | 13.5 ± 9.25 µM | 1.09 µM and 0.544 µM | 0.153 µM and 1.22 µM and 1.09 µM | 0.968 µM and 0.172 µM and 1.22 µM | –
13 | O=C(O)/C=C/C(=O)O.O=C1c2ccccc2C(=O)N1CCc1noc(-c2ccc(CN3CCCCCC3)s2)n1 [PharmaGSID_48172] | R | – | -2.1 | -99.042 | 11.1 ± 1.52 µM | -2.2 | -51.694 | -1.1 | 6.51 µM and 8.19 µM | 16.3 ± 1.86 µM | 36.3 µM | 21.2 ± 1.44 µM | 24.7 ± 1.61 µM | 20.5 µM | 17.5 ± 16.2 µM | 14.5 ± 1.67 µM | 17.1 ± 3.86 µM | 22.9 µM and 36.3 µM and 32.3 µM | 20.4 µM and 36.3 µM and 28.8 µM | 32.3 µM and 40.7 µM and 22.9 µM | IC50 (recombinant human AChE [2]; IC50 (uM)): 23.1 µM; IC50 (recombinant human AChE [6]; IC50 (uM)): 58 µM
14 | CCOC(=O)C(SP(=S)(OC)OC)c1ccccc1 (stereo not shown) [Phenthoate] | – | – | -2.2 | -77.281 | 25.1 ± 2.88 µM | -3 | -48.701 | -1.1 and -2.1 | 31.7 µM and 22.4 µM and 25.2 µM | 12.6 ± 1.44 µM | 33.2 ± 15.3 µM | 38.1 ± 2.48 µM | 29.1 ± 1.97 µM | 8.66 µM | 1.01 ± 1.29 µM | 20.4 ± 5.69 µM | 26.5 ± 11.5 µM | 44.4 µM | 49.8 µM and 39.5 µM | 39.5 µM and 28 µM and 31.4 µM | IC50 (recombinant human AChE [2]; IC50 (uM)): 71 µM; IC50 (recombinant human AChE [6]; IC50 (uM)): 79.6 µM
15 | CCOP(=S)(OCC)SCn1c(=O)oc2cc(Cl)ccc21 [Phosalone] | – | – | 4 | – | – | -1.1 | – | -2.2 | 56.4 µM and 48.1 µM and 35.6 µM and 76.2 µM | – | 17.1 µM | – | 2.91 µM | 10.5 µM | 66.3 µM | 50 µM | 9.61 µM | 55.9 µM and 35.2 µM | 55.9 µM and 62.7 µM and 49.8 µM | 62.7 µM and 55.9 µM | AChE inhibition (result in words) (recombinant human AChE [2]): did not show effects; potency (IC50), Enzyme (recombinant human AChE [2]): Inactive; potency (IC50), SH-SY5Y cells monolayer (AChE in SH-SY5Y cells): Inactive; potency (IC50), Enzyme-based assay with heat-inactivated microsomes (recombinant human AChE [5]): Inactive; IC50 (recombinant human AChE [6]; IC50 (uM)): 3.99 µM and 8.55 µM
16 | CCOP(=S)(OCC)O/N=C(\C#N)c1ccccc1 [Phoxim] | – | – | -2.2 and -2.1 | – | 23.4 µM | -1.1 | – | -2.1 | 17.4 µM and 63.3 µM and 30.9 µM and 71 µM and 34.7 µM | 20.9 µM | 3.18 µM | 22 ± 4.1 µM | 0.67 µM | 0.4 µM | 13.3 µM | 12.9 µM | 0.33 µM | 27.3 µM and 24.3 µM | 30.6 µM and 24.3 µM | 21.7 µM and 19.3 µM and 24.3 µM | –
